Where “and” joins values, the source holds several entries; their conditions need not be identical. Equal values may be shown once. Numbers after ± are expanded uncertainties.
Legend:
[1] = 101 kPa, Liquid; for viscosity: Capillary tube (Ostwald / Ubbelohde) method; for mass density: Vibrating tube method
[2] = xn = mol fraction of the nth substance listed; details: 101 kPa, Liquid; for viscosity: Capillary tube (Ostwald / Ubbelohde) method; for mass density: Vibrating tube method

| SMILES | viscosity ([1]; 298.15 K) | mass density ([1]; 298.15 K) | viscosity ([1]; 303.15 K) | mass density ([1]; 303.15 K) | viscosity ([1]; 308.15 K) | mass density ([1]; 308.15 K) | viscosity ([1]; 313.15 K) | mass density ([1]; 313.15 K) | viscosity ([1]; 323.15 K) | mass density ([1]; 323.15 K) | further results |
| --- | --- | --- | --- | --- | --- | --- | --- | --- | --- | --- | --- |
| CN1CCNCC1 [N-methylpiperazine] | 1.854 ± 0.024 mPa·s | 899.28 ± 0.13 kg/m3 | 1.583 ± 0.02 mPa·s | 894.9 ± 0.13 kg/m3 | 1.409 ± 0.017 mPa·s | 890.5 ± 0.13 kg/m3 | 1.258 ± 0.015 mPa·s | 886.07 ± 0.13 kg/m3 | 1.064 ± 0.013 mPa·s | 877.28 ± 0.13 kg/m3 | – |
| C1C[C@@H]2[C@H]3CC[C@H](C3)[C@@H]2C1 [exo-tetrahydrodicyclopentadiene] | 2.8 ± 0.043 mPa·s | 931.29 ± 0.76 kg/m3 | 2.549 ± 0.039 mPa·s | 927.38 ± 0.75 kg/m3 | 2.332 ± 0.036 mPa·s | 923.45 ± 0.75 kg/m3 and 923.46 ± 0.75 kg/m3 | 2.124 ± 0.033 mPa·s | 919.54 ± 0.75 kg/m3 | 1.811 ± 0.028 mPa·s | 911.7 ± 0.74 kg/m3 | – |
| C1C[C@@H]2[C@H]3CC[C@H](C3)[C@@H]2C1 [exo-tetrahydrodicyclopentadiene] + CN1CCNCC1 | – | – | – | – | – | – | – | – | – | – | viscosity ([2]; 298.15 K, x2 = 0): 2.8 ± 0.043 mPa·s; mass density ([2]; 298.15 K, x2 = 0): 931.29 ± 0.76 kg/m3; viscosity ([2]; 303.15 K, x2 = 0): 2.549 ± 0.039 mPa·s; mass density ([2]; 303.15 K, x2 = 0): 927.38 ± 0.75 kg/m3; viscosity ([2]; 308.15 K, x2 = 0): 2.332 ± 0.036 mPa·s; mass density ([2]; 308.15 K, x2 = 0): 923.45 ± 0.75 kg/m3; viscosity ([2]; 313.15 K, x2 = 0): 2.124 ± 0.033 mPa·s; mass density ([2]; 313.15 K, x2 = 0): 919.54 ± 0.75 kg/m3; viscosity ([2]; 323.15 K, x2 = 0): 1.811 ± 0.028 mPa·s; mass density ([2]; 323.15 K, x2 = 0): 911.7 ± 0.74 kg/m3 |
| CCN(CC)CC [triethylamine] | 0.366 ± 0.005 mPa·s | 724.21 ± 0.25 kg/m3 | 0.34 ± 0.005 mPa·s | 719.54 ± 0.25 kg/m3 | 0.334 ± 0.004 mPa·s | 714.84 ± 0.25 kg/m3 | 0.331 ± 0.004 mPa·s | 710.1 ± 0.25 kg/m3 | 0.298 ± 0.004 mPa·s | 700.71 ± 0.25 kg/m3 | – |
| CCN(CC)CC [triethylamine] + C1C[C@@H]2[C@H]3CC[C@H](C3)[C@@H]2C1 | – | – | – | – | – | – | – | – | – | – | viscosity ([2]; 298.15 K, x1 = 1): 0.366 ± 0.005 mPa·s; mass density ([2]; 298.15 K, x1 = 1): 724.21 ± 0.25 kg/m3; viscosity ([2]; 303.15 K, x1 = 1): 0.34 ± 0.005 mPa·s; mass density ([2]; 303.15 K, x1 = 1): 719.54 ± 0.25 kg/m3; viscosity ([2]; 308.15 K, x1 = 1): 0.334 ± 0.004 mPa·s; mass density ([2]; 308.15 K, x1 = 1): 714.84 ± 0.25 kg/m3; viscosity ([2]; 313.15 K, x1 = 1): 0.331 ± 0.004 mPa·s; mass density ([2]; 313.15 K, x1 = 1): 710.1 ± 0.25 kg/m3; viscosity ([2]; 323.15 K, x1 = 1): 0.298 ± 0.004 mPa·s; mass density ([2]; 323.15 K, x1 = 1): 700.71 ± 0.25 kg/m3 |
